Patent US9539232B1, “Calebin A for osteoporosis” (priority 2016, dated 2017)

How the values were obtained:
Assay type in all cases: cell-based, mouse
RAW 264.7 cells [1] = test: Osteoclast differentiation assay, RANKL-induced (TRAP staining)
Method: (§1) To determine the effects of calebin A on RANKL-induced osteoclast differentiation, the RAW264.7 cells were cultured at a density of 5×10^3 cells per well in 24-well plates and allowed to adhere overnight. The medium was then replaced and the cells were treated with 5 nM RANKL for 5 days. After the incubation, the cells were subjected to TRAP staining using leukocyte acid phosphatase kit. For co-culture experiments with cancer cells, RAW 264.7 cells were seeded at a density of 5×10^3 cells per well and allowed to adhere overnight. U266 or MDA-MB-231 cells, at a density of 1×10^3 cells per well, were added to the RAW 264.7 cells the following day. The wells were treated with calebin A, and co-cultured for 5 days before being subjected to TRAP staining. For conditioned medium experiments, RAW 264.7 cells were seeded at a density of 5×10^3 cells per well and allowed to adhere overnight. The following day, the medium was replaced with ⅘ of RAW 264.7 medium (DMEM/F12) plus ⅕ of conditioned medium from MDA-MB-231 or U266 cells. For that procedure, the supernatant of cultured cancer cells that had been centrifuged was used. Finally, the RAW264.7 cells were cultured for 5 days and subjected to TRAP staining and an electrophoretic mobility shift assay (EMSA).

RAW 264.7 cells [2] = test: Cell proliferation assay (MTT); settings: 1, 2 or 5 mM calebin A, days 1, 3 and 5
Method: The effects of calebin A on the proliferation of RAW 264.7 cells were determined by measuring mitochondrial dehydrogenase activity with 3-[4,5-dimethylthiazol-2-yl]-2,5-diphenyl tetrazolium bromide (MTT) as the substrate as described in B. Sung, S. Prasad, V. R. Yadav, S. C. Gupta, S. Reuter, N. Yamamoto, A. Murakami, B. B. Aggarwal, PloS One 8 (2013) e64118. In brief, 3000 RAW264.7 cells (in 0.1 ml media) per well were incubated with various concentrations of calebin A, in triplicate, in 96-well plates at 37° C. for 1, 3, or 5 days. At each interval, MTT solution was added to each well, and the plates were incubated for 2 h at 37° C. An extraction buffer (100 mM) comprised of 20% sodium dodecyl sulphate (SDS) and 50% dimethyl formamide was added, and the cells were incubated overnight at 37° C. to dissolve the formazan formed during the reaction. The absorbance of the coloured product was then measured at 570 nm using a 96-well multiscanner (MRX Revelation, Dynex Technologies, Chantilly, Va.).

[3] = tested on: RAW 264.7 cells incubated in the presence of MDA-MB-231 cells; test: Osteoclastogenesis induced by co-culture with MDA-MB-231 breast cancer cells (TRAP staining); settings: calebin A 5 mM, co-incubated 5 days
Method: as §1

[4] = tested on: RAW 264.7 cells incubated in the presence of U266 cells; test: Osteoclastogenesis induced by co-culture with U266 multiple myeloma cells (TRAP staining); settings: calebin A 5 mM, co-incubated 5 days
Method: as §1

NF-κB activation = test: Electrophoretic mobility shift assay for NFκB
Method: To assess NFκB activation in the nuclear extracts, EMSA was carried out using the procedure described by Y. Li, S. Li, Y. Han, J. Liu, J. Zhang, F. Li, Y. Wang, X. Liu, L. Yao, Eur. J. Pharmacol. 591 (2008) 252-258. In brief, nuclear extracts from untreated and RANKL-treated RAW 264.7 cells were incubated with the 32P-end-labeled 45-mer double-stranded NFκB oligonucleotide ([…] protein with 16 fM DNA) from the HIV long terminal repeat, 5′-[…]-3′(boldface indicates NFκB binding sites), for 30 min at 37° C. The DNA-protein complex formed was separated from free oligonucleotides on 6.6% native polyacrylamide gels. The dried gels were visualized with a Storm 820 molecular imager (Amersham, Piscataway, N.J., USA), and radioactive bands were quantified using a densitometer and Image Quant software ([…]).

IκBα = test: Western blot for IκBα degradation and phosphorylation
Method: (§2) To determine protein expression levels, the cytoplasmic and whole cell extracts were prepared and were fractionated using 10% sodium dodecyl sulphate polyacrylamide gel electrophoresis (SDSPAGE). After electrophoresis, the proteins were transferred to nitrocellulose membranes, blotted with the relevant antibodies, and detected with enhanced chemiluminescence reagent (GE Healthcare, Piscataway, N.J.).

ERK1/2 phosphorylation = test: Western blot for phospho-ERK1/2; settings: calebin A pretreatment 8 h, RANKL 10 nM
Method: as §2

[5] = tested on: p65 transfected RAW 264.7 cells; test: RANKL-induced osteoclastogenesis after transfection of p65 plasmid; settings: 5 mM calebin A, 5 nM RANKL, 5 days
Method: To determine the role of NF-κB/p65 expression on calebin A-induced inhibition osteoclastogenesis, RAW 264.7 cells (5×10^5 cells/well) were plated in 6-well plates and transiently transfected by the calcium phosphate method with pNF-κB ([…]) and control plasmid pCMVFLAG1 DNA for 24 h. The medium was then replaced, and the cells were treated with RANKL (5 nM) and or calebin A (5 mM) for 5 days. All cells were subjected to TRAP staining using the leukocyte acid phosphatase kit.

[6] = tested on: RANK and c-Fms expression; test: Immunoblot for M-CSF-induced osteoclast differentiation markers; settings: 50 mM calebin A 8 h, 20 ng/mL M-CSF 24 h
Method: as §2
Further to examine the possible role of calebin A in the regulation of osteoclast differentiation in early stage, the RAW 264.7 cells were pre-treated with calebin A and induced by M-CSF for 24 h.

[7] = tested on: NFATc1, TRAP, cathepsin K and calcitonin R expression; test: Western blot for RANKL-induced osteoclastogenesis-related marker expression
Method: as §2
NFATc1 plays a major role in the regulation of osteoclastogenesis. […] Basically, activation and nuclear translocation of NFATc1 and osteoclast differentiation are mediated by the expression of large number of marker genes, including TRAP, cathepsin K and calcitonin R, regulated by NFATc1. These genes are activated by the RANKL-mediated signalling pathway. Therefore, the effect of calebin A on the expression of RANKL-induced osteoclastogenesis related marker genes, were also examined.

[8] = calebin A 5 mM, measured on day 5

## COc1cc(/C=C/C(=O)COC(=O)/C=C/c2ccc(O)c(OC)c2)ccc1O [Calebin A]
RAW 264.7 cells [1]; RANKL 5 nM plus calebin A for 3, 4 or 5 days
  Number of TRAP-positive osteoclasts, time course: decreased the number of TRAP-positive osteoclasts in a dose-dependent manner
RAW 264.7 cells [1]; [8]
  Osteoclast formation, calebin A added 1-2 days after RANKL stimulation: substantially inhibited osteoclast formation
  Osteoclast formation, calebin A added at days 3 and 4 after RANKL exposure: no longer prevented osteoclast formation
RAW 264.7 cells [1]; dose of 5 mM, all time points (3, 4, 5 days)
  Inhibition of TRAP-positive osteoclast number at highest dose: strongest inhibition
RAW 264.7 cells [2]
  Proliferation of RAW 264.7 cells (MTT): did not significantly affect the proliferation of RAW 264.7 cells
[3]
  MDA-MB-231 cell-induced differentiation of RAW264.7 cells into osteoclasts: inhibited this differentiation
[4]
  U266 cell-induced differentiation of RAW264.7 cells into osteoclasts: A similar pattern was observed
NF-κB activation; 50 mM calebin A without RANKL for 8 h
  NF-κB activation without RANKL (EMSA): No effect on the activation of NF-κB
NF-κB activation; dose of 50 mM, 8 h pretreatment, RANKL 30 min
  RANKL-induced NF-κB activation (EMSA), dose dependence: completely suppressed NF-κB activation
NF-κB activation; pretreated with various concentrations for 8 h or 50 mM for various times, then RANKL 10 nM 30 min
  RANKL-induced NF-κB activation (EMSA): completely abrogated RANKL-induced NF-κB activation
IκBα; 50 mM calebin A 8 h, ALLN 30 min, RANKL 10 nM 15 min
  IκBα phosphorylation at serines 32 and 36 induced by RANKL and ALLN co-treatment: inhibited the induction of phosphorylation
IκBα; 50 mM calebin A 8 h pretreatment, 10 nM RANKL
  RANKL-induced IκBα degradation (cytoplasmic, western blot): complete inhibition of IκBα degradation
IκBα; calebin A alone, no RANKL
  IκBα phosphorylation by calebin A alone: did not induce phosphorylation of IκBα
IκBα; calebin A pretreatment (8 h), 10 nM RANKL
  RANKL-induced IκBα phosphorylation: phosphorylation was completely inhibited
ERK1/2 phosphorylation
  RANKL-induced ERK1/2 phosphorylation: did not inhibit the RANKL-induced activation of ERK phosphorylation
[5]
  RANKL induced osteoclastogenesis in cells transfected with control plasmid: almost completely inhibited
  RANKL induced osteoclastogenesis in p65 transfected RAW 264.7 cells: minimally inhibited
[6]
  M-CSF-induced expression of RANK: downmodulate M-CSF-induced expression of RANK
  c-Fms expression: no significant variation
[7]; 50 mM calebin A 8 h, 10 nM RANKL 24 h
  RANKL-induced NFATc1, TRAP, cathepsin K and calcitonin R expression: inhibits the RANKL-induced NFATc1, TRAP, cathepsin K and calcitonin R expression
[7]; 50 mM calebin A 8 h pretreatment, 10 nM RANKL 24 h
  RANKL-induced NFATc1 expression: abolished the RANKL-induced NFATc1 expression
[7]; calebin A alone, no RANKL
  Expression of TRAP, cathepsin K and calcitonin R with calebin A alone: no effect of calebin A alone
